Data taken from ChEMBL document CHEMBL3507680, “University of Dundee, Gates Library screen for HepG2 cell viability”.

Test: Human HepG2 cell viability assay in 384 well format
Type: toxicity, cell-based
Set-up: dose 125 nL, time 70.5 hour; cytotoxicity at 70.5 h: concentration not given beside the values
Conditions: HepG2 cells, read-out: Inhibition

Row | SMILES | cytotoxicity at 70.5 h [%]
1 | Cc1cc(=O)[nH]c(=O)n1COCc1ccccc1 | -18.6
2 | COC(=O)CC1CCN(C(=O)c2ccc(C)cc2)CC1 | -4.4
3 | Cn1nnnc1SCc1cc2c(cc1Cl)OCO2 | -16
4 | CN(C)CCCNC(=O)c1ccc(Cl)cc1Cl | -14.1
5 | Cn1cnnc1SCc1cc2c(cc1Br)OCO2 | -1.06
6 | COc1ccc2c(ccn2CCC(=O)/N=c2\[nH]nc(C3CCCO3)s2)c1 (stereo unspecified) | -15.5
7 | Cc1cs/c(=N\C(=O)c2c3c(nc4onc(C)c24)CCC3)[nH]1 | -19.5
8 | CN(C)CCNC(=O)c1ccccc1NC(=O)c1cc(Cl)ccc1Cl | 26.4
9 | CC1=Nc2c(c(O)nn2C2CCOCC2)C(c2cccnc2)S1 (stereo unspecified) | -3.81
10 | COCc1n[nH]/c(=N\C(=O)c2c3c(nc4onc(C)c24)CCC3)s1 | -3.26
11 | O=C(CCn1ccc2ccc(Br)cc21)/N=c1\[nH]nc(C2CCCO2)s1 (stereo unspecified) | -14.5
12 | O=C(Cn1ccc2ccc(Cl)cc21)/N=c1\[nH]nc(C2CCCO2)s1 (stereo unspecified) | -2.63
13 | COC(=O)CC1CCN(C(=O)c2ccccc2-n2nnnc2C)CC1 | -12.6
14 | CC1=Nc2c(c(O)nn2C(C)C)C(c2cccnc2)S1 (stereo unspecified) | 26.1
15 | O=c1cc(-c2ccccc2)nc2n1CCCCC2 | 23.6
16 | CCOc1cccc(CNc2cccc(C(=O)OC)c2)c1O | -19.3
17 | CCOc1cccc(CNc2ccccc2OC)c1O | -8.56
18 | CCc1ccc(-n2nnc(C(=O)O)c2-c2ccccn2)cc1 | -26.2
19 | COc1ccc(-n2nnc(C(=O)O)c2-c2ccccn2)cc1 | -14.5
20 | O=S(=O)(NC1=NCN(CCc2ccccc2)CN1)c1ccc(F)cc1 | -27.6
21 | O=C(NCCN1CCOCC1)c1nc(-c2ccc3[nH]ccc3c2)no1 | -30.5

Row | SMILES | cytotoxicity at 70.5 h [%]
22 | Cc1c(C)n(Cc2ccccn2)c2nc3c(c(N)c12)CCCCC3 | 27.5
23 | COc1ccc(N2Cc3nc(=O)n(C(C)C)n3C2=O)cc1 | -15.6
24 | CN(C(=O)Cn1nc(-c2ccccc2F)ccc1=O)C1CCS(=O)(=O)C1 (stereo unspecified) | -25.7
25 | CN(C(=O)Cn1nc(-c2ccc(Cl)cc2)ccc1=O)C1CCS(=O)(=O)C1 (stereo unspecified) | -21.1
26 | Cc1nnc2ccc(N3CCC(C(=O)Nc4nccs4)CC3)nn12 | 1.41
27 | Cc1c(C)n(Cc2ccccn2)c2nc3c(c(N)c12)CCCCCC3 | 22
28 | O=c1ccc(-c2cccs2)nn1CN1CCc2ccccc2C1 | -23.7
29 | O=C1CC(c2ccc3c(c2)OCO3)c2c(n3ccsc3nc2=O)N1 (stereo unspecified) | -9.84
30 | Cc1ccc(N2Cc3nc(=O)n(C(C)C)n3C2=O)cc1 | -28.9
31 | Cc1oc(-c2nc(C#N)c(NCC(C)C)o2)cc1S(=O)(=O)N1CCCC1 | -13.1
32 | Cc1oc(-c2nc(C#N)c(NC(C)(C)C)o2)cc1S(=O)(=O)N1CCCC1 | -8.41
33 | COc1ccc(NS(=O)(=O)CC2=NC(=O)n3cccc3C2=O)cc1Cl | -8.91
34 | O=c1c(S(=O)(=O)N2CCCCC2)cccn1Cc1cccnc1 | -9.28
35 | COc1ccc(-c2nc(C)cc(SCC(N)=O)n2)cc1 | -2.23
36 | CCCN(CCC)c1ncc(S(=O)(=O)c2ccc(C)cc2)c(N)n1 | -19.9
37 | CCCN(CCC)c1ncc(S(=O)(=O)c2ccc(OC)cc2)c(N)n1 | -9.23
38 | Cc1c(C(=O)O)cnn1-c1ccc(-c2nc(C3CC3)no2)cn1 | -14
39 | Cc1c(C(=O)N2CCN(c3ccccn3)CC2)n(C)c2ccc(Cl)cc12 | -13.6
40 | CCc1c(C)n(CCOC)c2nc3ccccc3n2c1=O | 19.8
41 | CC1CC(=O)c2cnc3nc(N4CCOCC4)[nH]c(=O)c3c2C1 (stereo unspecified) | -15.8
42 | OCCNc1nc(NCCc2ccccc2)nc2nccnc12 | -1.57

Row | SMILES | cytotoxicity at 70.5 h [%]
43 | CC1(C)CC(=O)c2cnc3nc(N4CCCCC4)nc(O)c3c2C1 | -11
44 | COc1ccccc1C1CC(=O)Nc2c1c(=O)[nH]n2C(C)C (stereo unspecified) | 25.6
45 | CCOC(=O)CC(c1ccc(OC)cc1)c1c(O)n[nH]c1C (stereo unspecified) | -13.7
46 | O=C(NCCc1nccs1)C(c1ccccc1)n1cnnn1 (stereo unspecified) | -4.94
47 | CC(O)CNC(=O)c1nc(Cc2c(Cl)cccc2Cl)no1 (stereo unspecified) | -4.9
48 | c1cc(C2CCN(c3cnccn3)CC2)ncn1 | 1.96
49 | CN(C)c1nccc(C2CN(c3ccccc3)CCO2)n1 (stereo unspecified) | -4.49
50 | CN(C)CCn1nc(C2CCN(S(=O)(=O)N(C)C)C2)c2cccnc21 (stereo unspecified) | -3.16
51 | Cc1cc(C)n(CCNCc2cc(-c3ccc(F)cc3)c[nH]c2=O)n1 | 1.4
52 | Cn1cc(CN2CCc3nc4sccc4c(=O)n3CC2)cn1 | -3.58
53 | CCC(C)NC(=O)c1cc(S(=O)(=O)N(C)C)c(C)s1 (stereo unspecified) | -4.34
54 | Cc1cc(Nc2cnccn2)cc(C2CCCN2)n1 (stereo unspecified) | 12.2
55 | Nc1ncc(-c2ccc(Cl)cc2)c(C2CCCNC2)n1 (stereo unspecified) | 37.3
56 | Cc1cc(N(C)C)nc(C2COCCN2Cc2csc(C)n2)n1 (stereo unspecified) | 10.4
57 | Cc1cc(NC2CC3(CCN(Cc4cscn4)C3)C2)ncn1 (stereo unspecified) | -6.43
58 | c1cnnc(N[C@@H]2CC[C@@H]3CN(Cc4ccc5cc[nH]c5c4)C[C@@H]32)c1 | -9.52
59 | COCC(=O)NC[C@]1(O)CN(Cc2ccc3c(c2)OCCO3)C[C@H]1O | -12.9
60 | CS(=O)(=O)N[C@@H]1CN(Cc2ccc3ncccc3c2)C[C@H]1O | -5.91
61 | CCn1cc(NC(=O)CN2CCC(Oc3ccccc3C)CC2)c(C)n1 | -2.26
62 | Cc1cc(C)nc(Nc2nccnc2C2CCCN(C(CO)CO)C2)n1 (stereo unspecified) | -6.39
63 | NC(=O)CN1CCC(c2noc3cc(F)ccc23)CC1 | 39.4

Row | SMILES | cytotoxicity at 70.5 h [%]
64 | CC(C)(C)C(=O)N1CCCC1(C(=O)N1CCCC1)c1cnccn1 (stereo unspecified) | 18.9
65 | CCc1nnc(Nc2cc(C)nc(C3CN(C(=O)C(C)C)CCO3)c2)s1 (stereo unspecified) | 9.87
66 | COc1cccc(F)c1CN1CCC(c2nc(C)cc(C)n2)C1 (stereo unspecified) | 14.3
67 | Cn1ccnc1CNC(=O)CC1CCCCO1 (stereo unspecified) | -6.84
68 | COc1ccccc1OCCc1nnc(NC(=O)C2CC23CCC3)s1 (stereo unspecified) | -2.4
69 | CC1CCCN(c2ncc(-c3ccccc3F)c(-c3nccn3C)n2)C1 (stereo unspecified) | -12.5
70 | CCCC(=O)Nc1cccc([C@H]2C[C@@H](NC(C)=O)CCO2)c1 | -12.2
71 | CC(=O)N[C@H]1CCO[C@@H](c2cccc(NC(=O)C(C)(C)C)c2)C1 | -7.68
72 | Cc1cc(N2CCOC(c3ccc(N(C)C)cn3)C2)nc(N)n1 (stereo unspecified) | -6.31
73 | Cc1ccc(-c2ccccc2CC2(C(=O)NC(C)C)CCCNC2)cc1 (stereo unspecified) | -3.27
74 | CC(=O)N1CC(C(=O)NC(C)c2cnn(C)c2C)C1 (stereo unspecified) | -4.41
75 | CN(C)Cc1cc(C2CCN(C(=O)C3CC34CCC4)CC2)nn1C (stereo unspecified) | -0.0295
76 | Cc1csc(C(Cc2ccsc2)NC(=O)CN(C)Cc2cccnc2)n1 (stereo unspecified) | -0.677
77 | Nc1ncnc2nc(C3CCCCN3)ccc12 (stereo unspecified) | -6.59
78 | COc1cccc(CN(Cc2ccco2)Cc2[nH]cnc2C)c1 | 6.19
79 | Cc1nc(CN2CCC(O)(c3ccccc3F)CC2)c2ccccn12 | 11.2
80 | c1ccc([C@@H]2CN(Cc3ccncc3)C[C@H]2c2cc[nH]n2)cc1 | -1.08
81 | CN(C)C(=O)c1cn[nH]c1C1CCCN1Cc1nccn1C (stereo unspecified) | 22.5
